The values below come from US4593018A, “Oligopeptide aldehydes useful as specific inhibitors of enterokinase” (National Research Development Corp., priority 1983, dated 1986).

Common to all, as to format: biochemical
In assay [1] the target is T1, Human Enterokinase (Homo sapiens, UniProt P98073). The assay is described as follows: Inhibition of human enterokinase, α-N-[3H]acetyl trypsinogen as substrate. To be noted: substrate α-N-[3H]acetyltrypsinogen. How it is done:
(§1) Biological testing was carried out on the polyaspartyl argininal materials prepared as described above without further purification. […] Inhibition constants Ki for human and pig enterokinase were calculated using α-N-[^3 H] acetyl trypsinogen and Gly-(Asp)4 -Lys-2-Nap as substrates using linear regression analysis of l/v against [I] at three substrate concentrations. Inhibition of trypsin catalysed hydrolysis of both these substrates and Bz-Arg-OEt was expressed as the IC50, the concentration of inhibitor required to reduce trypsin activity by 50%. The results to activation peptides, four peptides of the invention, leupeptin and p-aminobenzamidine are set out in Tables 1 to 3 below.

The target of assay [2] is T1, Human Enterokinase. The assay can be described thus: Inhibition of human enterokinase, Gly-(Asp)4-Lys-2-Nap as substrate. To be noted: substrate Gly-(Asp)4-Lys-2-Nap; linear regression of 1/v against [I] at three substrate concentrations. As to the method: as §1
The next assay addresses Pig Enterokinase (Sus scrofa, UniProt P98074). The assay is described as follows: Inhibition of pig enterokinase, α-N-[3H]acetyl trypsinogen as substrate. To be noted: substrate α-N-[3H]acetyltrypsinogen. As to the method:
as §1

Residues, ends and D or L forms follow the SMILES beside them. No end group written: not given here. *: point of attachment. Boc = CC(C)(C)OC(=O)*

Sequence of Pig Enterokinase (P98074 52-1034): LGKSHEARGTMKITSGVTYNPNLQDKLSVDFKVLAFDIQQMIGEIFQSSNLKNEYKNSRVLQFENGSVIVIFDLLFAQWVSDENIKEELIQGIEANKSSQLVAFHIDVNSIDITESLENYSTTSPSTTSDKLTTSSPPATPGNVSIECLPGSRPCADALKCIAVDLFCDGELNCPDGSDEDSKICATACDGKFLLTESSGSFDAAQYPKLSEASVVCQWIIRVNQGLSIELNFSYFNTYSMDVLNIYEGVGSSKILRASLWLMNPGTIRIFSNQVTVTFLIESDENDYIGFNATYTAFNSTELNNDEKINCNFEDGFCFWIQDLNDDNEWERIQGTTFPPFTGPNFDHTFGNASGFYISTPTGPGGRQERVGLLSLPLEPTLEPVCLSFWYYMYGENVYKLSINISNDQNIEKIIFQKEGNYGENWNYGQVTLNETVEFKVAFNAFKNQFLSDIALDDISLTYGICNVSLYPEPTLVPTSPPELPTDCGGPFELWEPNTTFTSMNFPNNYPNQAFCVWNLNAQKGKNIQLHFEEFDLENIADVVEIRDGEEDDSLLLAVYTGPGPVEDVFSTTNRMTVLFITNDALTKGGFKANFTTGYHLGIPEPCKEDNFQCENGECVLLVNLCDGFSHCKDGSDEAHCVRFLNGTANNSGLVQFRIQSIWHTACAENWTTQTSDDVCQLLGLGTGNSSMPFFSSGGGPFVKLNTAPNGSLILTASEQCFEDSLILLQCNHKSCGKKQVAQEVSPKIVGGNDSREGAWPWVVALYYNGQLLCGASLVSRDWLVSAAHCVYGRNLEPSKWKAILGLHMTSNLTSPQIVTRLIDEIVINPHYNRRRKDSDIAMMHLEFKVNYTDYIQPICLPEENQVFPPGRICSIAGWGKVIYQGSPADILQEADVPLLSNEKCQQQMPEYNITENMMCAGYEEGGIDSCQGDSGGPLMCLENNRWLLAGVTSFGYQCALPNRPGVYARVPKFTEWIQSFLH
T1 sequence (P98073 whole entry): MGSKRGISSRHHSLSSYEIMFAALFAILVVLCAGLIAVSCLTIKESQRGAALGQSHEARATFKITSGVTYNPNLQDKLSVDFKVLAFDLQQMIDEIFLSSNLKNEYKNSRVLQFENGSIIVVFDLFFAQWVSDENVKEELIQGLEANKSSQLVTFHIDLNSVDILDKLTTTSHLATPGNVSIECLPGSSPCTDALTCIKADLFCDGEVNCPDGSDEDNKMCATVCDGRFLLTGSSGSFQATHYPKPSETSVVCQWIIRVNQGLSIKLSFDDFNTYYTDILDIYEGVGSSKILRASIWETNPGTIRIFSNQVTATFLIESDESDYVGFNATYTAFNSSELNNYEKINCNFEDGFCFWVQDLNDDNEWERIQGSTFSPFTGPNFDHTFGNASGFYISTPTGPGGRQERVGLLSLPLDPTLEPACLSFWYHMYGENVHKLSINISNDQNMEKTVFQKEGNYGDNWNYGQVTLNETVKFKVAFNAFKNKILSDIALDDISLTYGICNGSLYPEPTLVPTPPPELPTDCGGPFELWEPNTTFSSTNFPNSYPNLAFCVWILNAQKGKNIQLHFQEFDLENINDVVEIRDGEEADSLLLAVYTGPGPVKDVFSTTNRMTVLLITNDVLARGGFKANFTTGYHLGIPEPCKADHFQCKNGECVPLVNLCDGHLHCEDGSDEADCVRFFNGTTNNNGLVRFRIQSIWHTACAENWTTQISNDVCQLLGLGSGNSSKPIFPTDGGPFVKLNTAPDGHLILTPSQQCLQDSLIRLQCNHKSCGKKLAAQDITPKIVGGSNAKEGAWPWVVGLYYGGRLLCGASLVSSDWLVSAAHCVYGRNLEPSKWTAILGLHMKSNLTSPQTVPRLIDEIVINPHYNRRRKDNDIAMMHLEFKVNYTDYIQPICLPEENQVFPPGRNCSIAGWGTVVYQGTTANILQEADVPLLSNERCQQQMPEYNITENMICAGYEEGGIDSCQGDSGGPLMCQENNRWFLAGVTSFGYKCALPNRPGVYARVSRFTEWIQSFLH

As usually defined, the Ki is a measure of affinity in units of concentration, obtained from inhibition or displacement. High values mean lower affinity, low ones higher affinity. As to `CC(C)(C)OC(=O)N[C@@H](CC(=O)O)C(=O)N[C@@H](CC(=O)O)C(=O)N[C@H](C=O)CCCNC(=N)N` [Boc(Asp)2 Argal, Boc--(Asp)2 --Argininal] (Boc-Asp-Asp-Arg-aldehyde), the Ki came to 10 ± 5 nM on Human Enterokinase [1], 200 ± 50 nM on Human Enterokinase [2] and 50 ± 10 nM at Pig Enterokinase.

For the compound `CC(C)(C)OC(=O)N[C@@H](CC(=O)O)C(=O)N[C@@H](CC(=O)O)C(=O)N[C@@H](CC(=O)O)C(=O)N[C@H](C=O)CCCNC(=N)N` [Boc(Asp)3 Argal, Boc--(Asp)3 --Argininal] (Boc-DDDR-aldehyde), the Ki at Human Enterokinase [1] amounted to 20 ± 5 nM; on Human Enterokinase [2] it was 100 nM; on Pig Enterokinase, 35 ± 5 nM.

For `CC(C)(C)OC(=O)N[C@@H](CC(=O)O)C(=O)N[C@@H](CC(=O)O)C(=O)N[C@@H](CC(=O)O)C(=O)N[C@@H](CC(=O)O)C(=O)N[C@H](C=O)CCCNC(=N)N` [Boc(Asp)4 Argal, Boc--(Asp)4 --Argininal] (Boc-DDDDR-aldehyde), the results for the Ki on Human Enterokinase [1], at Human Enterokinase [2] and at Pig Enterokinase were 10 ± 5 nM, 55 ± 5 nM and 20 ± 10 nM, respectively.

Take `CC(=O)N[C@@H](CC(C)C)C(=O)N[C@@H](CC(C)C)C(=O)N[C@H](C=O)CCCNC(=N)N` [Leupeptin, reference compound]: the Ki at Human Enterokinase [2] was 1000 nM; at Pig Enterokinase, no less than 1000 nM.

Regarding `N=C(N)c1ccc(N)cc1` [p-aminobenzamidine, reference compound], the Ki on Human Enterokinase [1] and at Pig Enterokinase was no less than 50000 nM each time.

As to “APFDDDDK [Ala--Pro--Phe--(Asp)4 Lys, reference compound]”, affinity at Human Enterokinase [2] was put at a Ki of 750000 nM.

As for DDDDK [(Asp)4 Lys, reference compound], at Human Enterokinase [2], affinity was put at a Ki of 100000 nM.
